The test system of the assay is cultured cortical neurons. In words: OGD-induced Ca2+ overload and neuronal death, Fura-2 ratio Ca2+ imaging. It counts as cell-based, mouse. The following applies: for OGD-mediated neuronal death: WT neurons, 10 μM overnight. Here is the method: FIGS. 6C-6E show the effects of TAT-EE3 on Ca2+ overload and neuronal death caused by OGD. Cultured WT and gM2KO cortical neurons were treated with 10 μM TAT-SC and TAT-EE3 for overnight before experiments.
Mice pups at P0 were euthanized based on animal protocol. Whole brain was dissected out immediately and immersed in ice-cold Hank's Balanced Salt Solution (HBSS). Meninges were removed thoroughly, and tissue of different brain areas was taken based on purposes. Brain tissue was cut into small pieces and digested with 0.25% trypsin (Thermal Fisher Scientific, 15090-046) in HBSS at 37° C. for 20 min. Digestion solution was quickly removed, and tissue pellets are washed with Neurobasal® Medium (Thermal Fisher Scientific, 21103-049) for 3 times. Cells were resuspended with appropriate amount of Neurobasal® Medium supplemented with 2% B27® supplement (Thermal Fisher Scientific, 17504-044), 3% horse serum (Thermal Fisher Scientific, 16050114), 0.25% L-glutamine (Thermal Fisher Scientific, 25030-081) and 1% penicillin/streptomycin (Thermal Fisher Scientific, 15140-122). Isolated cells were counted and plated on coverslips pre-coated with poly-L-lysine (Sigma-Aldrich, P4707) at a density about 500×10^3 cells/cm2 for OGD and H2O2 treatment, and 100×10^3 cells/cm2 for current recording. Cytosine arabinoside (Sigma-Aldrich, C1768) was added to maintain a concentration at 1 μM to inhibit the proliferation of non-neuronal cells. 24 h after plating, culture medium was changed to Neurobasal® Medium supplemented with 2% B27® supplement, 0.25% L-glutamine and 1% penicillin/streptomycin. The concentration of Cytosine arabinoside (araC) was increased to 2 μM. Medium was changed every 3 days. OGD and H2O2 treatment was conducted at 7th day of culture, and current recording was conducted at 7th, 10th and 14th day of culture.
Oxygen-glucose deprivation (OGD) was achieved by replace the glucose in aCSF with sucrose, and 95% N2 and 5% CO2 was used to equilibrate sucrose-aCSF to displace oxygen. This condition typically yielded a pO2 of <5 mm Hg in the imaging chamber (Thompson, R. J., Zhou, N., and Mac Vicar, B. A. (2006). Ischemia opens neuronal gap junction hemichannels. Science 312, 924-27). At least 10 min was allowed for neurons to adapt to the change from culture medium to aCSF before OGD was applied.
Changes of intracellular Ca2+ was measured using ratio Ca2+ imaging as we describe previously (Du, J., Xie, J., Zhang, Z., Tsujikawa, H., Fusco, D., Silverman, D., Liang, B., and Yue, L. (2010). TRPM7-mediated Ca2+ signals confer fibrogenesis in human atrial fibrillation. Circulation research 106, 992-1003). In brief, Fura-2 AM (Thermal Fisher Scientific, F1221) was dissolved in DMSO to make a stock concentration at 1 mM. Pre-warmed Neurobasal® Medium (Thermal Fisher Scientific, 21103-049) was used to dilute Fura-2 AM to a working concentration at 2.5 μM, and 0.02% Pluronic™ F-127 (Thermal Fisher Scientific, P3000MP) was added to facilitate loading of Fura-2 AM. Cells plated on 25 mm glass coverslips were washed using pre-warmed PBS for 3 times, and then incubated with 2 ml of Fura-2 AM working solution for 30˜45 min at 37° C. […]
Ca2+ influx was measured by perfusing the cells with Tyrode's solution for transfected HEK293T cells or aCSF for neurons under different conditions. […] Fluorescence intensities at 510 nm with 340 nm and 380 nm excitation were collected at a rate of 1 Hz using CoolSNAP HQ2 (Photometrics) and data were analyzed using NIS-Elements (Nikon). […]

Where [1] appears, read: pretreatment 10 μM overnight, F340/380.

For “TAT-EE3: membrane permeable disrupting peptide, sequence YGRKKRRQRRREEDTDSSEEMLALAEE (SEQ ID NO: 4)”, the OGD-mediated neuronal death (30 min OGD, WT without TAT-EE3 10.6%) came out at 3.6%; the OGD-mediated neuronal death (60 min OGD, WT without TAT-EE3 47.6%) was found to be 9.9%; the OGD-mediated neuronal death (90 min OGD, WT without TAT-EE3 70.5%) is 45.2%. The “OGD-induced changes of intracellular Ca2+ in TRPM2-KO neurons” value under setting [1] is “not in TRPM2-KO neurons”. Further, the “OGD-induced changes of intracellular Ca2+ in WT neurons” value under setting [1] was “significantly reduced”.

The values are drawn from patent publication US20250235501A1, “Methods and Compositions for Treating or Preventing Neurological Injury or Neurological Disorders” (University of Connecticut, priority 2024, published 2025).
